Drawing on patent US20120053170A1, “NICOTINAMIDE DERIVATIVES, PREPARATION THEREOF, AND THERAPEUTIC USE THEREOF AS ANTICANCER DRUGS” (SANOFI, priority 2009, published 2012), this text covers IC50 for four molecules.

The test system of this test is HCT116 tumour line (ATCC-CCL247). Description: MTS cell proliferation and viability test on the HCT116 tumour line. Type of test: cell-based. Conditions: Homo sapiens, HCT-116, incubating the test compound for 72 hours, read-out: IC50 (concentration of compound which results in a 50% loss of cell proliferation and viability). Here is the method:
They were tested in vitro on the HCT116 tumour line (ATCC-CCL247). […] In this test, the mitochondrial ability of the living cells to convert MTS to a coloured compound is measured after incubating the test compound for 72 hours.

`CCNc1nc(-c2ccc(NC(=O)NCc3ccc(N)nc3)cc2F)ccc1C(=O)NCCN1CCCCC1` [Compound No. 11, 6-{4-[3-(6-Aminopyridin-3-ylmethyl)ureido]-2-fluorophenyl}-2-ethylamino-N-[2-(piperidin-1-yl)ethyl]nicotinamide]: the IC50 was < 1 nM.
As for `CCNc1nc(-c2ccc(NC(=O)NCc3ccc(N)nc3)c(F)c2)ccc1C(=O)NCCN1[C@H](C)CCC[C@@H]1C` [Compound No. 19, 6-{4-[3-(6-Aminopyridin-3-ylmethyl)ureido]-3-fluorophenyl]-N-[2-(cis-2,6-dimethylpiperidin-1-yl)ethyl]-2-(ethylamino)nicotinamide], the figure is < 1 nM; as for `Nc1ccc(CNC(=O)Nc2ccc(-c3ccc(C(=O)NCCN4CCCCC4)c(Nc4ccccc4)n3)cc2F)cn1` [Compound No. 5, 6-{4-[3-(6-Aminopyridin-3-ylmethyl)ureido]-3-fluorophenyl}-2-phenylamino-N-[2-(piperidin-1-yl)ethyl]nicotinamide], < 1 nM.
In the case of `CCNc1nc(-c2ccc(NC(=O)NCc3cccnc3)c(F)c2)ccc1C(=O)NCCN1CCCCC1` [Compound No. 27, 2-Ethylamino-6-{3-fluoro-4-[3-(pyridin-3-ylmethyl)ureido]phenyl}-N-[2-(piperidin-1-yl)ethyl]nicotinamide] it was < 1 nM.
